In PMC12802961 (Journal of Antimicrobial Chemotherapy, 2025):
“And” between values parts separate entries of the source, which are not always exact repeats. Equal values may be shown once. Marks after values point to notes of the source that are not given here.

Key:
E. coli 52 = assay: Checkerboard broth microdilution MIC of cefepime alone and with taniborbactam; assay type: cell-based, Escherichia coli; conditions: ESBL-producing E. coli; in vitro checkerboard
Source text: (§1) Four previously well-characterized cefepime-resistant isolates, namely one ESBL-producing E. coli, one ESBL-producing K. pneumoniae and two P. aeruginosa (one VIM- and one AmpC constitutively -producing), were used.

P. aeruginosa 106 [1] = assay: as above; assay type: cell-based, Pseudomonas aeruginosa; conditions: AmpC constitutively-producing P. aeruginosa; in vitro checkerboard
Source text: as §1

P. aeruginosa 132 [2] = assay: as above; assay type: cell-based, Pseudomonas aeruginosa; conditions: VIM-producing P. aeruginosa; in vitro checkerboard
Source text: as §1

K. pneumoniae 59 = assay: Neutropenic murine thigh infection model; assay type: in vivo, Klebsiella pneumoniae
Procedure: (§2) All dosing regimens were performed in at least two animals per dosing regimen.
(§3) At t = 0 h, 2 h after infection, two mice were humanely euthanized to determine the initial number of cfu/thigh just before treatment. […] Subsequently, thighs were homogenized using the Ultra-Turrax homogenizer (IKA Labortechnik, Germany). For each thigh 10-fold dilution series were prepared and 3 × 10 µL per dilution were plated (Chromagar, bioMérieux, NL). The following day, colonies were counted and the number of cfu/thigh was calculated.
(§4) Free drug concentrations were used in all calculations.

P. aeruginosa 106 [3] = assay: Neutropenic murine thigh infection model; assay type: in vivo, Pseudomonas aeruginosa
Procedure: as §2, §3, §4

P. aeruginosa 132 [4] = assay: Neutropenic murine thigh infection model; assay type: in vivo, Pseudomonas aeruginosa
Procedure: as §2, §3, §4

[5] = tested on: β-lactamase–producing Enterobacterales and Pseudomonas aeruginosa; assay: Neutropenic murine thigh infection model, all isolates together; assay type: in vivo
Procedure: […]. […] […]. All dosing regimens were performed in at least two animals per dosing regimen.
At t = 0 h, 2 h after infection, two mice were humanely euthanized to determine the initial number of cfu/thigh just before treatment. All other animals were euthanized at t = 24 h unless the welfare of the animals indicated earlier termination, following animal welfare regulations. Thighs were taken and moved to a pre-cooled 10 mL plastic tube (Transport Tube, Omnilabo, NL) containing 2 mL PBS (NaCl 8.00 g/L, Na2HPO4 * 2H2O 1.44 g/L, KH2PO4 0.26 g/L, pH 7.2–7.4). Subsequently, thighs were homogenized using the Ultra-Turrax homogenizer (IKA Labortechnik, Germany). For each thigh 10-fold dilution series were prepared and 3 × 10 µL per dilution were plated (Chromagar, bioMérieux, NL). The following day, colonies were counted and the number of cfu/thigh was calculated. The drug effect was then determined as the difference between the log10cfu/thigh values at t = 24 h and t = 0 h (mean value of two mice) expressed as Δlog10cfu, i.e. positive result for growth, zero for static effect and negative for reduction of inoculum (killing).
. […] Free drug concentrations were used in all calculations. […]

[6] = + cefepime q2h 64 mg/kg, Ct 0.015 mg/L
[7] = + cefepime q2h 64 mg/kg, Ct 0.03 mg/L
[8] = + cefepime q2h 64 mg/kg, Ct 0.06 mg/L
[9] = + cefepime q2h 64 mg/kg, Ct 0.125 mg/L
[10] = + cefepime q2h 64 mg/kg, Ct 0.25 mg/L
[11] = + cefepime q2h 64 mg/kg, Ct 0.5 mg/L
[12] = + cefepime q2h 64 mg/kg, Ct 1 mg/L
[13] = + cefepime q2h 64 mg/kg, Ct 2 mg/L
[14] = + cefepime q2h 64 mg/kg, Ct 4 mg/L
[15] = taniborbactam q2h + cefepime q2h 64 mg/kg
[16] = + cefepime q2h 8 mg/kg, Ct 0.015 mg/L
[17] = + cefepime q2h 8 mg/kg, Ct 0.03 mg/L
[18] = + cefepime q2h 8 mg/kg, Ct 0.06 mg/L
[19] = + cefepime q2h 8 mg/kg, Ct 0.125 mg/L
[20] = + cefepime q2h 8 mg/kg, Ct 0.25 mg/L
[21] = + cefepime q2h 8 mg/kg, Ct 0.5 mg/L
[22] = + cefepime q2h 8 mg/kg, Ct 1 mg/L
[23] = + cefepime q2h 8 mg/kg, Ct 2 mg/L
[24] = + cefepime q2h 8 mg/kg, Ct 4 mg/L
[25] = taniborbactam q2h + cefepime q2h 8 mg/kg
[26] = Ct = taniborbactam concentration where reversal of cefepime resistance was found in vitro

NCCN[C@H]1CC[C@H](CC(=O)N[C@H]2Cc3cccc(C(=O)O)c3OB2O)CC1 [taniborbactam, Taniborbactam]
Taniborbactam concentration at which reversal of phenotypic resistance to cefepime was observed (E. coli 52): ≤ 0.03 mg/L
Taniborbactam concentration at which reversal of phenotypic resistance to cefepime was observed (P. aeruginosa 106 [1]): 2 mg/L
Taniborbactam concentration at which reversal of phenotypic resistance to cefepime was observed (P. aeruginosa 132 [2]): 0.125 mg/L
Stasis: Taniborbactam %ƒT > Ct 0.015 mg/L (K. pneumoniae 59; + cefepime q2h 4 mg/kg, Ct 0.015 mg/L): 100%
1 log kill: Taniborbactam %ƒT > Ct 0.015 mg/L (K. pneumoniae 59; + cefepime q2h 4 mg/kg, Ct 0.015 mg/L, at extrapolated dose): 100%
Stasis: Taniborbactam %ƒT > Ct 0.03 mg/L (K. pneumoniae 59; + cefepime q2h 4 mg/kg, Ct 0.03 mg/L): 100%
1 log kill: Taniborbactam %ƒT > Ct 0.03 mg/L (K. pneumoniae 59; + cefepime q2h 4 mg/kg, Ct 0.03 mg/L, at extrapolated dose): 100%
Stasis: Taniborbactam %ƒT > Ct 0.06 mg/L (K. pneumoniae 59; + cefepime q2h 4 mg/kg, Ct 0.06 mg/L): 86.2%
1 log kill: Taniborbactam %ƒT > Ct 0.06 mg/L (K. pneumoniae 59; + cefepime q2h 4 mg/kg, Ct 0.06 mg/L, at extrapolated dose): 100%
Stasis: Taniborbactam %ƒT > Ct 0.125 mg/L (K. pneumoniae 59; + cefepime q2h 4 mg/kg, Ct 0.125 mg/L): 69.3%
1 log kill: Taniborbactam %ƒT > Ct 0.125 mg/L (K. pneumoniae 59; + cefepime q2h 4 mg/kg, Ct 0.125 mg/L, at extrapolated dose): 100%
Stasis: Taniborbactam %ƒT > Ct 0.25 mg/L (K. pneumoniae 59; + cefepime q2h 4 mg/kg, Ct 0.25 mg/L): 52.4%
1 log kill: Taniborbactam %ƒT > Ct 0.25 mg/L (K. pneumoniae 59; + cefepime q2h 4 mg/kg, Ct 0.25 mg/L, at extrapolated dose): 100%
Stasis: Taniborbactam %ƒT > Ct 0.5 mg/L (K. pneumoniae 59; + cefepime q2h 4 mg/kg, Ct 0.5 mg/L): 35.5%
1 log kill: Taniborbactam %ƒT > Ct 0.5 mg/L (K. pneumoniae 59; + cefepime q2h 4 mg/kg, Ct 0.5 mg/L, at extrapolated dose): 100%
Stasis: Taniborbactam %ƒT > Ct 1 mg/L (K. pneumoniae 59; + cefepime q2h 4 mg/kg, Ct 1 mg/L): 18.6%
1 log kill: Taniborbactam %ƒT > Ct 1 mg/L (K. pneumoniae 59; + cefepime q2h 4 mg/kg, Ct 1 mg/L, at extrapolated dose): 99.01%
Stasis: Taniborbactam %ƒT > Ct 2 mg/L (K. pneumoniae 59; + cefepime q2h 4 mg/kg, Ct 2 mg/L): 0%
1 log kill: Taniborbactam %ƒT > Ct 2 mg/L (K. pneumoniae 59; + cefepime q2h 4 mg/kg, Ct 2 mg/L, at extrapolated dose): 83.25%
Stasis: Taniborbactam %ƒT > Ct 4 mg/L (K. pneumoniae 59; + cefepime q2h 4 mg/kg, Ct 4 mg/L): 0%
1 log kill: Taniborbactam %ƒT > Ct 4 mg/L (K. pneumoniae 59; + cefepime q2h 4 mg/kg, Ct 4 mg/L, at extrapolated dose): 66.35%
Stasis: Taniborbactam total daily dose (K. pneumoniae 59; taniborbactam q2h + cefepime q2h 4 mg/kg): 24.00 mg/kg
1 log kill: Taniborbactam total daily dose, mg/kg (K. pneumoniae 59; taniborbactam q2h + cefepime q2h 4 mg/kg, extrapolated dose, effect not reached within tested doses): (680)^b mg/kg
1 log kill: Taniborbactam %ƒT > Ct 0.015 mg/L (P. aeruginosa 106 [3]; [6]): 100%
Stasis: Taniborbactam %ƒT > Ct 0.015 mg/L (P. aeruginosa 106 [3]; [6]): 100%
1 log kill: Taniborbactam %ƒT > Ct 0.03 mg/L (P. aeruginosa 106 [3]; [7]): 100%
Stasis: Taniborbactam %ƒT > Ct 0.03 mg/L (P. aeruginosa 106 [3]; [7]): 100%
1 log kill: Taniborbactam %ƒT > Ct 0.06 mg/L (P. aeruginosa 106 [3]; [8]): 100%
Stasis: Taniborbactam %ƒT > Ct 0.06 mg/L (P. aeruginosa 106 [3]; [8]): 100%
1 log kill: Taniborbactam %ƒT > Ct 0.125 mg/L (P. aeruginosa 106 [3]; [9]): 100%
Stasis: Taniborbactam %ƒT > Ct 0.125 mg/L (P. aeruginosa 106 [3]; [9]): 100%
1 log kill: Taniborbactam %ƒT > Ct 0.25 mg/L (P. aeruginosa 106 [3]; [10]): 100%
Stasis: Taniborbactam %ƒT > Ct 0.25 mg/L (P. aeruginosa 106 [3]; [10]): 88.39%
1 log kill: Taniborbactam %ƒT > Ct 0.5 mg/L (P. aeruginosa 106 [3]; [11]): 96.5%
Stasis: Taniborbactam %ƒT > Ct 0.5 mg/L (P. aeruginosa 106 [3]; [11]): 71.5%
1 log kill: Taniborbactam %ƒT > Ct 1 mg/L (P. aeruginosa 106 [3]; [12]): 79.6% and 79.61%
Stasis: Taniborbactam %ƒT > Ct 1 mg/L (P. aeruginosa 106 [3]; [12]): 54.6% and 54.61%
1 log kill: Taniborbactam %ƒT > Ct 2 mg/L (P. aeruginosa 106 [3]; [13]): 62.71%
Stasis: Taniborbactam %ƒT > Ct 2 mg/L (P. aeruginosa 106 [3]; [13]): 37.74%
1 log kill: Taniborbactam %ƒT > Ct 4 mg/L (P. aeruginosa 106 [3]; [14]): 45.8%
Stasis: Taniborbactam %ƒT > Ct 4 mg/L (P. aeruginosa 106 [3]; [14]): 20.82%
1 log kill: Taniborbactam total daily dose, mg/kg (P. aeruginosa 106 [3]; [15]): 293 mg/kg
Stasis: Taniborbactam total daily dose (P. aeruginosa 106 [3]; [15]): 105.00 mg/kg
1 log kill: Taniborbactam %ƒT > Ct 0.015 mg/L (P. aeruginosa 132 [4]; [16]): 100%
Stasis: Taniborbactam %ƒT > Ct 0.015 mg/L (P. aeruginosa 132 [4]; [16]): 100%
1 log kill: Taniborbactam %ƒT > Ct 0.03 mg/L (P. aeruginosa 132 [4]; [17]): 100%
Stasis: Taniborbactam %ƒT > Ct 0.03 mg/L (P. aeruginosa 132 [4]; [17]): 96.10%
1 log kill: Taniborbactam %ƒT > Ct 0.06 mg/L (P. aeruginosa 132 [4]; [18]): 88.19%
Stasis: Taniborbactam %ƒT > Ct 0.06 mg/L (P. aeruginosa 132 [4]; [18]): 79.2%
1 log kill: Taniborbactam %ƒT > Ct 0.125 mg/L (P. aeruginosa 132 [4]; [19]): 71.30%
Stasis: Taniborbactam %ƒT > Ct 0.125 mg/L (P. aeruginosa 132 [4]; [19]): 62.31%
1 log kill: Taniborbactam %ƒT > Ct 0.25 mg/L (P. aeruginosa 132 [4]; [20]): 54.41%
Stasis: Taniborbactam %ƒT > Ct 0.25 mg/L (P. aeruginosa 132 [4]; [20]): 45.1%
1 log kill: Taniborbactam %ƒT > Ct 0.5 mg/L (P. aeruginosa 132 [4]; [21]): 37.51%
Stasis: Taniborbactam %ƒT > Ct 0.5 mg/L (P. aeruginosa 132 [4]; [21]): 28.53%
1 log kill: Taniborbactam %ƒT > Ct 1 mg/L (P. aeruginosa 132 [4]; [22]): 20.6% and 20.62%
Stasis: Taniborbactam %ƒT > Ct 1 mg/L (P. aeruginosa 132 [4]; [22]): 11.6% and 11.63%
1 log kill: Taniborbactam %ƒT > Ct 2 mg/L (P. aeruginosa 132 [4]; [23]): 3.72%
Stasis: Taniborbactam %ƒT > Ct 2 mg/L (P. aeruginosa 132 [4]; [23]): 0%
1 log kill: Taniborbactam %ƒT > Ct 4 mg/L (P. aeruginosa 132 [4]; [24]): 0%
Stasis: Taniborbactam %ƒT > Ct 4 mg/L (P. aeruginosa 132 [4]; [24]): 0%
1 log kill: Taniborbactam total daily dose, mg/kg (P. aeruginosa 132 [4]; [25]): 26 mg/kg
Stasis: Taniborbactam total daily dose (P. aeruginosa 132 [4]; [25]): 18.00 mg/kg
%fT > Ct of taniborbactam associated with 1 log10 kill [5, 26]: 60%–100%
%fT > Ct of taniborbactam associated with stasis [5, 26]: 40%–50%
Effect of taniborbactam on cefepime's static effect ([5]; all isolates, combined with cefepime): restored cefepime’s static effect against all isolates
Taniborbactam TDDs at which cefepime regained its static effect ([5]; all isolates, with marginally ineffective doses of cefepime): 3.2 to 105 mg/kg
Taniborbactam TDDs at which cefepime regained its 1 log10 kill effect ([5]; all strains except K. pneumoniae): 26–293 mg/kg
q2h regimens more effective than q8h regimens ([5]; taniborbactam dose fractionation with cefepime q2h): > 10 fold
